Measured values published in patent US7776907B2, “Methods for the treatment and management of macular degeneration using cyclopropyl-N-{2-[(1S)-1-(3-ethoxy-4-methoxyphenyl)-2-(methylsulfonyl)ethyl]-3-oxoisoindoline-4-yl}carboxamide” (Celgene Corporation, priority 2002, dated 2010).

Key:
[1] = animal models; cited from earlier work
[2] = tested on: patients with macular degeneration; experiment: Clinical study in patients with macular degeneration, adjuvant to photodynamic therapy with verteporfin; assay type: in vivo, human; settings: about 20 mg/day as adjuvant to verteporfin photodynamic therapy for 20 weeks
Protocol: Selective cytokine inhibitory drugs of the invention are administered in an amount of about 20 to about 1,200 mg per day to patients with macular degeneration. In a specific embodiment, clinical studies are performed with forty patients with macular degeneration, who are divided into two groups. The first group receives conventional treatment for closing the leaking choroidal vessels (characteristic of this disease) by photodynamic therapy with verteporfin. Ophthalmol 1999 (117): 1329-1345. The second group receives the same conventional therapy with verteporfin and (+)-2-[1-(3-ethoxy-4 methoxy-phenyl)-2-methylsulfonylethyl]-4 acetylaminoisoindoline 1,3-dione in an amount of about 20 mg/day as an adjuvant for 20 weeks.
However, the first group without (+)-2-[1-(3-ethoxy-4 methoxyphenyl)-2-methylsulfonylethyl]-4 acetylaminoisoindoline 1,3-dione experiences progressive reperfusion of the ablated vessels several weeks after treatment. Progressive visual loss follows which requires the photodynamic therapy to be repeated.

patients with MD = settings: intravitreal injection, one-year period, randomized trial; cited from earlier work
laser-induced CNVM = settings: intravitreal injection, monkeys; cited from earlier work
MD = settings: cited from earlier work
TNF-α production = experiment: In vitro pharmacology studies: inhibition of TNF-α production following LPS-stimulation of human PBMC and human whole blood; assay type: cell-based; settings: compared with thalidomide
Excerpt: One of the biological effects typically exerted by selective cytokine inhibitory drugs is the reduction of synthesis of TNF-α. Specific selective cytokine inhibitory drugs enhance the degradation of TNF-α mRNA. TNF-α may play a pathological role in macular degeneration.
In a specific embodiment, the pharmacological properties of 3-(3,4-dimethoxy-phenyl)-3-(1-oxo-1,3-dihydro-isoindol-2-yl)-propionamide are characterized in in vitro studies. Studies examine the effects of the compound on the production of various cytokines. Inhibition of TNF-α production following LPS-stimulation of human PBMC and human whole blood by the compound is investigated in vitro. […] The pharmacological effects of 3-(3,4-dimethoxy-phenyl)-3-(1-oxo-1,3-dihydro-isoindol-2-yl)-propionamide may derive from its action as an inhibitor of the generation of inflammatory cytokines.

verteporfin
accumulation in tissue [1]: also accumulates in the retina

CCOc1cc(C(CS(C)(=O)=O)N2C(=O)c3cccc(NC(C)=O)c3C2=O)ccc1OC (single isomer, unassigned; (+)) [(+)-2-[1-(3-ethoxy-4 methoxyphenyl)-2-methylsulfonylethyl]-4 acetylaminoisoindoline 1,3-dione]
effect on neovascular cascade / duration of effects of photodynamic therapy [2]: neovascular cascade is sufficiently hindered

C[C@]12C=CC(=O)C=C1CC[C@H]1[C@@H]3C[C@@H](O)[C@](O)(C(=O)CO)[C@@]3(C)C[C@H](O)[C@@]12F [triamcinolone]
prevention of severe visual loss (patients with MD): fails to prevent severe visual loss
growth of laser-induced CNVM (laser-induced CNVM): inhibits the growth of laser-induced CNVM

interferon-α
efficacy at treating MD (MD; clinical trial, Arch. Ophthalmol. 115:865-72 (1997)): ineffective at treating MD
adverse effects (MD; human, in vivo): high rate of adverse effects

COc1ccc(C(CC(N)=O)N2Cc3ccccc3C2=O)cc1OC (stereo not shown) [3-(3,4-Dimethoxy-phenyl)-3-(1-oxo-1,3-dihydro-isoindol-2-yl)-propionamide]
pharmacological activity profile, potency relative to thalidomide (TNF-α production): five to fifty times more potent than thalidomide
